Measured values reported in patent publication US20020028836A1, “Potassium channel openers” (priority 2000, published 2002).
Like-named read-outs stand apart in the source and are kept apart here.

Assays:
[1] = system: tissue strips obtained from Landrace pig bladders; assay: Functional potassium channel opening activity in isolated bladder strips (field-stimulated twitch); details: for Index: ED50 for P1075 divided by ED50 for the test agonist in a given tissue, averaged; for EC50: amount of agent necessary to cause 50% of the agent's maximal response, read-out: ED50 (the source's name); for Efficacy (% P1075) / Emax: maximal efficacy relative to P1075, field stimulation 0.05 Hz, 0.5 ms, 20 volts
Procedure: Compounds were evaluated for functional potassium channel opening activity using tissue strips obtained from Landrace pig bladders.
Landrace pig bladders were obtained from female Landrace pigs of 9-30 kg. Landrace pigs were euthanized with an intraperitoneal injection of pentobarbital solution, Somlethal®, J. A. Webster Inc., Sterling, Mass. The entire bladder was removed and immediately placed into Krebs Ringer bicarbonate solution (composition, mM: NaCl, 120; NaHCO3, 20; dextrose, 11; KCl, 4.7; CaCl2, 2.5; MgSO4, 1.5; KH2PO4, 1.2; K2EDTA, 0.01, equilibrated with 5% CO2/95% O2pH 7.4 at 37° C.). Propranolol (0.004 mM) was included in all of the assays to block β-adrenoceptors. The trigonal and dome portions were discarded. Strips 3-5 mm wide and 20 mm long were prepared from the remaining tissue cut in a circular fashion. The mucosal layer was removed. One end was fixed to a stationary glass rod and the other to a Grass FT03 transducer at a basal preload of 1.0 gram. Two parallel platinum electrodes were included in the stationary glass rod to provide field stimulation of 0.05 Hz, 0.5 milli-seconds at 20 volts. This low frequency stimulation produced a stable twitch response of 100-500 centigrams. Tissues were allowed to equilibrate for at least 60 minutes and primed with 80 mM KCl. A control concentration response curve (cumulative) was generated for each tissue using the potassium channel opener P1075 as the control agonist. […] After a 60 minute rinsing period, a concentration response curve (cumulative) was generated for the test agonist in the same fashion as that used for the control agonist P1075. The maximal efficacy of each compound (expressed as % relative to P1075) is reported. The amount of agent necessary to cause 50% of the agent's maximal response (ED50) was calculated using “ALLFIT” (DeLean et al., Am. J. Physiol., 235, E97 (1980)), hereby incorporated by reference. Agonist potencies were also expressed as an index relative to P1075. The index was calculated by dividing the ED50 for P1075 by the ED50 for the test agonist in a given tissue. Each tissue was used for only one test agonist, and the indices obtained from each tissue were averaged to provide an average index of potency.

[2] = system: primary cultured guinea-pig urinary bladder (GPB) cells; assay: Membrane hyperpolarization (MHP) assay, DiBAC(4)3 / FLIPR; type: cell-based; details: for EC50: concentration that elicits 50% of the maximal response for the test sample; for Maximal Response (% P1075) / Emax: maximal steady-state hyperpolarization, normalized to response with 10 μM P1075 (100%)
Procedure: Compounds were evaluated for potassium channel opening activity using primary cultured guinea-pig urinary bladder (GPB) cells.
For the preparation of urinary bladder smooth muscle cells, urinary bladders were removed from male guinea-pigs (Hartley, Charles River, Wilmington, Mass.) weighing 300-400 g and placed in ice-cold Ca^2+-free Krebs solution (Composition, mM: KCl, 2.7; KH2PO4, 1.5; NaCl, 75; Na2HPO4, 9.6; Na2HPO4.7H2O, 8; MgSO4, 2; glucose, 5; HEPES, 10; pH 7.4). Cells were isolated by enzymatic dissociation as previously described with minor modifications (Klockner, U. and Isenberg, G., Pflugers Arch. (1985), 405, 329-339), hereby incorporated by reference. The bladder was cut into small sections and incubated in 5 mL of the Kreb's solution containing I mg/mL collagenase (Sigma, St. Louis, Mo.) and 0.2 mg/mL pronase (Calbiochem, La Jolla, Calif.) with continuous stirring in a cell incubator for 30 minutes. The mixture was then centrifuged at 1300×g for 5 minutes, and the pellet resuspended in Dulbecco's PBS (GIBCO, Gaithersburg, Md.) and recentrifuged to remove residual enzyme. The cell pellet was resuspended in 5 mL growth media (composition: Dulbecco's modified Eagle's medium supplemented with 10% fetal bovine serum, 100 units/mL penicillin, 100 units/mL streptomycin and […] amphotericin B) and further dissociated by pipetting the suspension through a flame-polished Pasteur pipette and passing it through a polypropylene mesh membrane (Spectrum, Houston, Tex.). The cell density was adjusted to 100,000 cells/mL by resuspension in growth media. Cells were plated in clear-bottomed black 96-well plates (Packard) for membrane potential studies at a density of 20,000 cells/well and maintained in a cell incubator with 90% air: 10% CO2 until confluent. Cells were confirmed to be of smooth muscle type by cytoskeletal staining using a monoclonal mouse anti human-α-smooth muscle actin (Biomeda, Foster City, Calif.).
Functional activity at potassium channels was measured by evaluating changes in membrane potential using the bis-oxonol dye DiBAC(4) (Molecular Probes) in a 96-well cell-based kinetic assay system, Fluorescent Imaging Plate Reader (FLIPR) (K. S. Schroeder et al., J. Biomed. Screen., v. 1 pp. 75-81 (1996)), hereby incorporated by reference. DiBAC(4)3 is an anionic potentiometric probe which partitions between cells and extracellular solution in a membrane potential-dependent manner. With increasing membrane potential (for example, K^+ depolarization), the probe further partitions into the cell; this is measured as an increase in fluorescence due to dye interaction with intracellular lipids and proteins. Conversely, decreasing membrane potential (hyperpolarization by potassium channel openers) evokes a decrease in fluorescence.
Confluent guinea-pig urinary bladder cells cultured in black clear-bottomed 96-well plates were rinsed twice with […] assay buffer (composition, mM: HEPES, 20; NaCl, 120; KCl, 2; CaCl2, 2; MgCl2, 1; glucose, 5; pH 7.4 at 25° C.) containing 5 μM DiBAC(4)3 and incubated with […] of the buffer in a cell incubator for 30 minutes at 37° C. to ensure dye distribution across the membrane. After recording the baseline fluorescence for 5 minutes, the reference or test compounds, prepared at 10 times the concentration in the assay buffer, were added directly to the wells. Changes in fluorescence were monitored for an additional 25 minutes. Hyperpolarization responses were corrected for any background noise and were normalized to the response observed with 10 μM of the reference compound P1075 (assigned as 100%), a potent opener of smooth muscle KATP channels (Quast et al., Mol. Pharmacol., v. 43 pp. 474-481 (1993)), hereby incorporated by reference.
Routinely, five concentrations of P1075 or test compounds (log or half-log dilutions) were evaluated and the maximal steady-state hyperpolarization values (expressed as % relative to P1075) plotted as a function of concentration. […]

## CCC(CC)(CCC#N)C(NC(=O)c1ccc(Cl)cc1)NC(=NC#N)Nc1cccnc1 (single isomer, unassigned; (+)) [Example 87, (+) 4-chloro-N-(4-cyano-1-{[(cyanoimino)(3-pyridinylamino)methyl]amino}-2,2-diethylbutyl)benzamide]
[1]
  Index: 0.02
  EC50: 7.6 µM
  Efficacy (% P1075): 67 % P1075
[2]
  EC50: 520 nM
  Maximal Response (% P1075): 85 % P1075

## Cc1ccccc1C(=O)NC(NC(=NC#N)Nc1cccnc1)C(Cl)(Cl)Cl (stereo not shown) [Example 50, 2-methyl-N-(2,2,2-trichloro-1-{[(cyanoimino)(3-pyridinylamino)methyl]amino}ethyl)benzamide]
[1]
  Index: 0.007
[1]; Sus scrofa
  EC50: 17 µM
  Emax: 90%
[2]; Cavia porcellus
  EC50: 100 nM
  Emax: 92%

## C=CCOCC(CC)(COCC=C)C(NC(=O)c1ccc(Cl)cc1)NC(=NC#N)Nc1cccnc1 (stereo not shown) [Example 96, N-(2,2-bis[(allyloxy)methyl]-1-{[(cyanoimino)(3-pyridinylamino)methyl]amino}butyl)-4-chlorobenzamide]
[2]; Cavia porcellus
  EC50: 240 nM
  Emax: 93%

## CC(C)(C)C(NC(=O)c1ccc(Cl)cc1)NC(=S)Nc1cccnc1 (stereo not shown) [Example 27, 4-chloro-N-(2,2-dimethyl-1-{[(3-pyridinylamino)carbothioyl]amino}propyl)benzamide]
[1]
  Index: 0.009
[1]; Sus scrofa
  EC50: 25 µM
  Emax: 94%
[2]; Cavia porcellus
  EC50: 100 nM
  Emax: 80%

## CCC(CC)(CCC#N)C(NC(=O)c1ccc(Cl)cc1)NC(=NC#N)Nc1cccnc1 (stereo not shown) [Example 65, 4-chloro-N-(4-cyano-1-{[(cyanoimino)(3-pyridinylamino)methyl]amino}-2,2-diethylbutyl)benzamide]
[2]; Cavia porcellus
  Emax: 89%
[2]
  EC50: 130 nM

## Cc1ccc(C(=O)NC(NC(=NC#N)Nc2cccnc2)C(Cl)(Cl)Cl)cc1 (stereo not shown) [Example 44, 4-methyl-N-(2,2,2-trichloro-1-{[(cyanoimino)(3-pyridinylamino)methyl]amino}ethyl)benzamide]
[1]
  Index: 0.040
[1]; Sus scrofa
  EC50: 2 µM
  Emax: 95%
[2]; Cavia porcellus
  EC50: 40 nM
  Emax: 103%

## CC1=C(CC(NC(=O)c2ccc(Cl)cc2)NC(=NC#N)Nc2cccnc2)C(C)(C)CCC1 (stereo not shown) [Example 66, 4-chloro-N-[1-{[(cyanoimino)(3-pyridinylamino)methyl]amino}-2-(2,6,6-trimethyl-1-cyclohexen-1-yl)ethyl]benzamide]
[2]; Cavia porcellus
  Emax: 79%
[2]
  EC50: 82 nM

## Cc1ccc(C(=O)NC(NC(=NC#N)Nc2cccnc2)C(C)(C)C)cc1 (single isomer, unassigned; (-)) [Example 57, (−) N-(1-{[(cyanoimino)(3-pyridinylamino)methyl]amino}-2,2-dimethylpropyl)-4-methylbenzamide]
[1]
  Index: 0.007
  EC50: 14 µM
  Efficacy (% P1075): 85 % P1075
[2]
  EC50: 4600 nM
  Maximal Response (% P1075): 80 % P1075

## CC(C)(C)CC(NC(=O)c1ccc(Cl)cc1)NC(=N[N+](=O)[O-])Nc1cccnc1 (stereo not shown) [Example 124, 4-chloro-N-(1-{[(nitroimino)(3-pyridinylamino)methyl]amino}-3,3-dimethylbutyl)benzamide]
[1]
  Index: 0.012
  EC50: 9.3 µM
  Efficacy (% P1075): 47 % P1075
[2]; Cavia porcellus
  EC50: 110 nM
  Emax: 98%

## N#CN=C(Nc1cccnc1)NC(NC(=O)c1ccc(Cl)cc1)C(Cl)(Cl)Cl (stereo not shown) [Example 45, 4-chloro-N-(2,2,2-trichloro-1-{[(cyanoimino)(3-pyridinylamino)methyl]amino}ethyl)benzamide]
[2]; Cavia porcellus
  EC50: 40 nM
  Emax: 92%

## CCCCC(C)(C)C(NC(=O)c1ccc(Cl)cc1)NC(=NC#N)Nc1cccnc1 (stereo not shown) [Example 94, 4-chloro-N-(1-{[(cyanoimino)(3-pyridinylamino)methyl]amino}-2,2-dimethylhexyl)benzamide]
[2]; Cavia porcellus
  EC50: 160 nM
  Emax: 82%

## CC(Cl)(Cl)C(NC(=O)c1ccc(Cl)cc1)NC(=NC#N)Nc1ccc(Cl)nc1 (single isomer, unassigned; (+)) [Example 162, (+) 4-chloro-N-(2,2-dichloro-1-{[[(6-chloro-3-pyridinyl)amino](cyanoimino)methyl]amino}propyl)benzamide]
[1]
  Index: 0.025
  EC50: 9 µM
  Efficacy (% P1075): 87 % P1075

## CC(Cl)(Cl)C(NC(=O)c1ccc(Cl)cc1)NC(=NC#N)Nc1cccnc1Cl (stereo not shown) [Example 168, 4-chloro-N-(2,2-dichloro-1-{[[(2-chloro-3-pyridinyl)amino](cyanoimino)methyl]amino}propyl)benzamide]
[1]
  Index: 0.064
[1]; Sus scrofa
  EC50: 0.89 µM
  Emax: 92%

## CC(Cl)(Cl)C(NC(=O)c1ccc(Cl)cc1)NC(=NC#N)Nc1ccccc1F (stereo not shown) [Example 175, 4-chloro-N-(2,2-dichloro-1-{[(cyanoimino)(2-fluoroanilino)methyl]amino}propyl)benzamide]
[1]
  Index: 0.148
[1]; Sus scrofa
  EC50: 1.5 µM
  Emax: 54%

## CC(Cl)(Cl)C(NC(=O)c1ccc(Cl)cc1)NC(=NC#N)Nc1cccnc1 (stereo not shown) [Example 116, 4-chloro-N-(2,2-dichloro-1-{[(cyanoimino)(3-pyridinylamino)methyl]amino}propyl)benzamide]
[1]
  Index: 0.028
  EC50: 3.3 µM
  Efficacy (% P1075): 94 % P1075

## Cc1cccc(C(=O)NC(NC(=NC#N)Nc2ccc(Cl)nc2)C(C)(Cl)Cl)c1 (stereo not shown) [Example 170, N-(2,2-dichloro-1-{[[(6-chloro-3-pyridinyl)amino](cyanoimino)methyl]amino}propyl)-3-methylbenzamide]
[1]
  Index: 0.012
[1]; Sus scrofa
  EC50: 4.2 µM
  Emax: 100%
